Tests used:
[1] = tested on: G. lamblia trophozoites (luciferase expressing, WBC6); test: microbe, parasite or virus in culture; format: cell-based, Giardia lamblia; settings: initial Pathogen Box screen, single concentration 16 µM, inhibition compared to DMSO wells
In short: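 Luciferase-expressing WBC6 trophozoites plated at 250,000 cells/mL, compounds added 1:1, incubated anaerobically (GasPak bags) at 37 °C for 24 h; viability read by bioluminescence, with duplicate plates counted on a MOXI Z cell counter. Metronidazole control serially diluted 1:2 from 40 μM.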

[2] = tested on: C. parvum (UGA1 Nluc expressing strain in HCT-8 cells); test: microbe, parasite or virus in culture; format: cell-based, Cryptosporidium parvum; settings: for Crypto (10 uM) Mean % inhibition: initial Pathogen Box screen, single concentration 10 µM, inhibition compared to DMSO wells
In short: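 HCT-8 monolayers grown 48 h to 90–100% confluence, treated with compound at 10 μM or serial dilutions, then infected with bleach-treated UGA1 Nluc C. parvum oocysts.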

SMILES	Giardia (16 uM) Mean % inhibition [1]	Crypto (10 uM) Mean % inhibition [2]	C. parvum cell growth inhibition in the initial screen ([2]; 10 μM, 48 hours) [%]	EC50 ([2]; Nluc C. parvum in HCT-8 cells, 48 hours, read-out: C. parvum EC50) [nM]
CC(=O)Nc1ccc(NC(=O)c2cc(-c3cc(Cl)ccc3O)n[nH]2)cc1 [MMV676380]	X* (Mean or standard deviation are negative but not significantly different from the control to be a growth promoter)	34%		
CC(C)(C)n1nc(Cc2cccc3ccccc23)c2c(N)ncnc21 [MMV676599]	21%	86%		
Cc1nn(Cc2ccccc2)c(Cl)c1C(=O)NC1CCCCCC1 [MMV063404]	55%	75%		
OCc1ccc(-c2cncc(Nc3cccc(Cl)c3)c2)cc1 [MMV026468]	39%	X* (Mean or standard deviation are negative but not significantly different from the control to be a growth promoter)		
CC(=O)N(CCN(C(=O)c1ccc(F)cc1)c1ccccc1)c1ccccc1 [MMV676064]	28%	28%		
Clc1ccc(CCNc2cc(-c3ccccc3)nc3ncnn23)cc1 [MMV688889]	65%	51%		
CC1=Nc2ccc(Cl)cc2C(O)(c2ccc(C)cc2)N1CCN1CCCCC1 (stereo not drawn) [MMV688279]	65%	43%		
CCN(CC)CCCCCCNc1cc(OC)cc2c(C)ccnc12 [MMV000063]	26%	62%		
CC(C)NCC(=O)Nc1cccc(C(=O)Nc2cccc(C(F)(F)F)c2)c1 [MMV020165]	81%	45%		
CCCCc1ccc(C(=O)Nc2nccc3ccccc23)nc1 [MMV687254]	X* (Mean or standard deviation are negative but not significantly different from the control to be a growth promoter)	77%		
N#Cc1nc(-c2ccccc2)oc1S(=O)(=O)c1ccc(Cl)cc1 [MMV676412]	49%	77%		
CO/N=C(/C(=O)OC)c1ccccc1CO/N=C(/C)c1cccc(C(F)(F)F)c1 [MMV688754]	26%	X* (Mean or standard deviation are negative but not significantly different from the control to be a growth promoter)		
O=C(COc1cccc(F)c1)Nc1nc(-c2ccccn2)cs1 [MMV676409]	X* (Mean or standard deviation are negative but not significantly different from the control to be a growth promoter)	67%		
CCCCN(CCCC)c1c(C#N)cc(S(=O)(=O)Nc2ccccc2)cc1C#N [MMV688467]	60%	X* (Mean or standard deviation are negative but not significantly different from the control to be a growth promoter)		
Cc1[nH]c2ccccc2c1C(c1cccs1)N1CCN(C)CC1 (stereo not drawn) [MMV688768]	9%	66%		
Cc1nnc(NCc2cccc(Cl)c2)c2ccccc12 [MMV676555]	X* (Mean or standard deviation are negative but not significantly different from the control to be a growth promoter)	X* (Mean or standard deviation are negative but not significantly different from the control to be a growth promoter)		
O=C(NCCN1CCCC1)c1cc(NCCCCN2CCC(F)(F)CC2)nc2ccc(Cl)cc12 [MMV667494]	82%	X* (Mean or standard deviation are negative but not significantly different from the control to be a growth promoter)		
CO/C=C(\C(=O)OC)c1ccccc1Oc1cc(Oc2ccccc2C#N)ncn1 [MMV021057]	3.75%	51%		
COc1cccc(-c2nc3c(N4CCCC4)cccc3n2CC2CCCN2)n1 (stereo not drawn) [MMV687703]	26%	77%		
O=C(NC1=NCCS1)c1sc2cc(F)ccc2c1Cl [MMV676584]	89%	69%		
O=C(C1CCN(c2nnnn2-c2ccccc2)CC1)N1CCc2ccccc2C1 [MMV009135]	X* (Mean or standard deviation are negative but not significantly different from the control to be a growth promoter)	56%		
COc1cccc(-n2nnnc2S(C)(=O)=O)c1 [MMV272144]	X* (Mean or standard deviation are negative but not significantly different from the control to be a growth promoter)	X* (Mean or standard deviation are negative but not significantly different from the control to be a growth promoter)		

SMILES	Giardia (16 uM) Mean % inhibition [1]	Crypto (10 uM) Mean % inhibition [2]	C. parvum cell growth inhibition in the initial screen ([2]; 10 μM, 48 hours) [%]	EC50 ([2]; Nluc C. parvum in HCT-8 cells, 48 hours, read-out: C. parvum EC50) [nM]
CC(C(=O)N1CCCC1)N1CCN(S(=O)(=O)c2ccc(C(C)(C)C)cc2)CC1 (stereo not drawn) [MMV020291]	13%	61%		
Cc1ccc(NC(=O)CC2COc3ccccc3O2)cc1Cl (stereo not drawn) [MMV676431]	18%	X* (Mean or standard deviation are negative but not significantly different from the control to be a growth promoter)		
COc1ccc(Nc2ccccc2NC(=O)c2ccc(=O)[nH]c2)cc1 [MMV676554]	21%	61%		
CS(=O)(=O)N1CCC(Cn2nc(Cc3cccc4ccccc34)c3c(N)ncnc32)CC1 [MMV676050]	18%	79%		
O=C(NC1CC1)c1ccc(N2CCC(Cc3ccccc3)CC2)nc1 [MMV024397]	X* (Mean or standard deviation are negative but not significantly different from the control to be a growth promoter)	X* (Mean or standard deviation are negative but not significantly different from the control to be a growth promoter)		
COc1cncc(-c2cncc(N3CCN(c4ccncc4)CC3)n2)c1 [MMV085071]	19%	47%		
Nc1nccc2ccc(Oc3ccncc3)cc12 [MMV026313]	X* (Mean or standard deviation are negative but not significantly different from the control to be a growth promoter)	X* (Mean or standard deviation are negative but not significantly different from the control to be a growth promoter)		
Cc1ccccc1C(=O)N1NC(=Nc2ccccc2)SC1(C)C [MMV688771]	51%	82%		
CC1(C)Cc2c(c(N3CCOCC3)nc3snc(Br)c23)CO1 [MMV687794]	17%	X* (Mean or standard deviation are negative but not significantly different from the control to be a growth promoter)		
COc1cccc(-c2cc3c(Nc4cccnc4)nccc3[nH]2)c1 [MMV392832]	50%	68%		
CC(C)n1ncc2c(C(=O)NCC(c3cccs3)N3CCOCC3)cc(-c3ccccc3)nc21 (stereo not drawn) [MMV676406]	34%	X* (Mean or standard deviation are negative but not significantly different from the control to be a growth promoter)		
O=C(C1CCCCC1)N1CC(=O)N2CCc3ccccc3[C@@H]2C1 [MMV002529]	16%	55%		
CCCCS(=O)(=O)Nc1ccc2cnn(C)c2c1 [MMV687145]	56%	32%		
O=C(N[C@H](Cc1ccccc1)C(=O)Nc1ccccc1N1CCOCC1)c1cccs1 [MMV688845]	25%	77%		
CCCS(=O)(=O)N1CCC(CO)(Cc2ccccc2C(F)(F)F)CC1 [MMV001059]	10%	X* (Mean or standard deviation are negative but not significantly different from the control to be a growth promoter)		
O=C(Nc1nnc(-c2ccc(Cl)cc2)o1)c1cccc(C(F)(F)F)c1 [MMV102872]	35%	95%	≥ 95	140
CC(Oc1ccccc1)C(=O)Nc1nc(-c2ccccn2)cs1 (stereo not drawn) [MMV676411]	16%	86%		
CC(C)(C)C(=O)N(CCCCCCN1C[C@H](O)[C@@H](O)[C@H](O)[C@H]1CO)C1CCCCCC1 [MMV688543]	X* (Mean or standard deviation are negative but not significantly different from the control to be a growth promoter)	X* (Mean or standard deviation are negative but not significantly different from the control to be a growth promoter)		
c1ccc(-c2cc(N3CCCCC3)c3ccccc3n2)nc1 [MMV560185]	X* (Mean or standard deviation are negative but not significantly different from the control to be a growth promoter)	47%		
O=C(NC1CCN(c2ccnc3ccccc23)C1)c1cccc(C(F)(F)F)c1 (stereo not drawn) [MMV023388]	86%	X* (Mean or standard deviation are negative but not significantly different from the control to be a growth promoter)		
Cc1nnc(NC(=O)c2cn(-c3ccccc3)nc2-c2ccccc2C)o1 [MMV020320]	X* (Mean or standard deviation are negative but not significantly different from the control to be a growth promoter)	91%		
Cc1nn(C(=O)Nc2cccc(C(F)(F)F)c2)c(C)c1Sc1ncccn1 [MMV688552]	X* (Mean or standard deviation are negative but not significantly different from the control to be a growth promoter)	X* (Mean or standard deviation are negative but not significantly different from the control to be a growth promoter)		

Source: PMC6095626, “Screening of the Pathogen Box for inhibitors with dual efficacy against Giardia lamblia and Cryptosporidium parvum” (PLoS Neglected Tropical Diseases, 2018)
